We go through four cell lines from the supplement of paper PMC10307832.

Common to all, as to experiment: relative viability (nuclei count vs DMSO), 5 days (fraction); higher = more cells survive
Compound in experiment [1]: COc1cc2c(Oc3ccc4[nH]c(C)cc4c3F)ncnc2cc1OCCCN1CCCC1 [Cediranib] + NC(=O)Nc1cc(-c2cccc(F)c2)sc1C(=O)N[C@H]1CCCNC1 [AZD7762] (partner 0.2 µM)
The method in brief:
(§1)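 Lung cancer cell lines in 1536-well plates got either a single drug or a fixed anchor-drug dose together with five library-drug doses (not always all listed) in √10 steps, by pin tool, on the day after seeding. Nuclei were counted after 5 days, and relative viability is the treated-to-vehicle ratio of nuclei counts. Values are medians of duplicate plates.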

Compound in experiment [2]: O=C(C[C@H]1NCCC[C@@H]1O)Cn1cnc2cc(Br)c(Cl)cc2c1=O (racemic) [Halofuginone] + CCNC(=O)c1noc(-c2cc(C(C)C)c(O)cc2O)c1-c1ccc(CN2CCOCC2)cc1 [Luminespib] (partner 0.01 µM)
In outline: as §1

Compound in experiment [3]: COc1cc2c(Oc3ccc4[nH]c(C)cc4c3F)ncnc2cc1OCCCN1CCCC1 [Cediranib] + CS(=O)(=O)CCNCc1ccc(-c2ccc3ncnc(Nc4ccc(OCc5cccc(F)c5)c(Cl)c4)c3c2)o1 [Lapatinib] (partner 2 µM)
The method in brief: as §1

Compound in experiment [4]: Nc1ncn([C@H]2C[C@H](O)[C@@H](CO)O2)c(=O)n1 [Decitabine] + CC1(C)CCC(c2ccc(Cl)cc2)=C(CN2CCN(c3ccc(C(=O)NS(=O)(=O)c4ccc(N[C@H](CCN5CCOCC5)CSc5ccccc5)c(S(=O)(=O)C(F)(F)F)c4)cc3)CC2)C1 [Navitoclax] (partner 0.5 µM)
The method in brief:
as §1

On to NCI-H3122, for which the relative viability in experiment [1] (first compound 0.04 µM) came out at 1.05; in experiment [1] (first compound 0.4 µM) it was 0.95; in experiment [1] (first compound 1.265 µM), 0.969; in experiment [1] (first compound 4 µM), 1.07; in experiment [2] (first compound 0.001 µM), 0.0978; in experiment [2] (first compound 0.003162 µM) it was 0.0825. In addition, the relative viability in experiment [2] (first compound 0.01 µM) stood at 0.0899; in experiment [2] (first compound 0.03162 µM), 0.0925; in experiment [2] (first compound 0.1 µM) it was 0.148; in experiment [3] (first compound 0.04 µM), 1.05; in experiment [3] (first compound 0.1265 µM), 0.985; in experiment [3] (first compound 0.4 µM) it was 1.01. In addition, the relative viability in experiment [3] (first compound 1.265 µM) was 0.98; in experiment [3] (first compound 4 µM), 1.05; in experiment [4] (first compound 0.04 µM), 0.999; in experiment [4] (first compound 0.1265 µM), 0.984; in experiment [4] (first compound 0.4 µM), 0.97; in experiment [4] (first compound 1.265 µM) it was 0.886. Besides, the relative viability in experiment [4] (first compound 4 µM) was 0.76.

PC-3 [JPC-3]: the relative viability in experiment [1] (first compound 0.04 µM) was found to be 0.758; in experiment [1] (first compound 0.4 µM) it was 0.769; in experiment [1] (first compound 1.265 µM) it was 0.749; in experiment [1] (first compound 4 µM), 0.783; in experiment [2] (first compound 0.001 µM), 0.705; in experiment [2] (first compound 0.003162 µM), 0.714. Further, the relative viability in experiment [2] (first compound 0.01 µM) amounted to 0.626; in experiment [2] (first compound 0.03162 µM), 0.823; in experiment [2] (first compound 0.1 µM) it was 0.661; in experiment [3] (first compound 0.04 µM), 0.479; in experiment [3] (first compound 0.1265 µM) it was 0.554; in experiment [3] (first compound 0.4 µM), 0.472. Moreover, the relative viability in experiment [3] (first compound 1.265 µM) stood at 0.391; in experiment [3] (first compound 4 µM) it was 0.45; in experiment [4] (first compound 0.1265 µM), 0.601; in experiment [4] (first compound 0.4 µM) it was 0.526; in experiment [4] (first compound 1.265 µM), 0.463; in experiment [4] (first compound 4 µM) it was 0.51.

Take PC-14: the relative viability in experiment [1] (first compound 0.04 µM) was 0.247; in experiment [1] (first compound 0.1265 µM), 0.377; in experiment [1] (first compound 0.4 µM), 0.355; in experiment [1] (first compound 1.265 µM), 0.262; in experiment [1] (first compound 4 µM), 0.344; in experiment [2] (first compound 0.001 µM), 0.152. In addition, the relative viability is 0.161 in experiment [2] (first compound 0.003162 µM); 0.183 in experiment [2] (first compound 0.01 µM); 0.184 in experiment [2] (first compound 0.03162 µM); 0.104 in experiment [2] (first compound 0.1 µM); 0.308 in experiment [3] (first compound 0.04 µM); 0.461 in experiment [3] (first compound 0.1265 µM). The relative viability is 0.297 in experiment [3] (first compound 0.4 µM); 0.301 in experiment [3] (first compound 1.265 µM); 0.404 in experiment [3] (first compound 4 µM); 0.51 in experiment [4] (first compound 0.04 µM); 0.556 in experiment [4] (first compound 0.1265 µM); 0.231 in experiment [4] (first compound 0.4 µM). In addition, the relative viability in experiment [4] (first compound 1.265 µM) is 0.162; in experiment [4] (first compound 4 µM), 0.166.

For the cell line RERF-LC-KJ, the relative viability in experiment [1] (first compound 0.04 µM) was determined as 0.92; in experiment [1] (first compound 0.1265 µM), 0.411; in experiment [1] (first compound 0.4 µM), 0.881; in experiment [1] (first compound 1.265 µM) it was 0.725; in experiment [1] (first compound 4 µM), 0.923; in experiment [2] (first compound 0.001 µM), 1.47. The relative viability in experiment [2] (first compound 0.003162 µM) came to 1.27; in experiment [2] (first compound 0.01 µM), 1.22; in experiment [2] (first compound 0.03162 µM), 1.25; in experiment [2] (first compound 0.1 µM) it was 0.887; in experiment [3] (first compound 0.04 µM) it was 0.94; in experiment [3] (first compound 0.1265 µM), 0.751. The relative viability came out at 0.783 in experiment [3] (first compound 0.4 µM); 0.836 in experiment [3] (first compound 1.265 µM); 0.954 in experiment [3] (first compound 4 µM); 0.779 in experiment [4] (first compound 0.04 µM); 0.844 in experiment [4] (first compound 0.1265 µM); 0.279 in experiment [4] (first compound 0.4 µM). The relative viability in experiment [4] (first compound 1.265 µM) was 0.597; in experiment [4] (first compound 4 µM), 0.618.
